Data taken from patent publication US20250115633A1, “PHOTODYNAMIC THERAPY AND DIAGNOSIS” (RMW CHO Group Limited, priority 2021, published 2025).
Structures can show the parent of a compound that is named as a salt. Where two headings read alike, the source gives them in different places.

Columns and labels:
[1] = system: SKOV3 ovarian cancer cells; test: Phototoxicity in SKOV3 cells after 660 nm light activation (AlamarBlue viability); type: cell-based, Human; settings: read-out: Phototoxicity μM (IC90)
Method: (§1) Samples were stored at 4° C. protected from light.
(§2) All data are shown as mean±SD (where appropriate).
Media was then replaced with fresh media containing AlamarBlue, and % viable cells remaining assessed as above. Controls included cells treated with chlorin e4 analogues but not activated by laser light; cells without chlorin e4 analogue treatment but with laser light; and untreated controls. All measurements were made in quadruplicate.

[2] = system: SKOV3 ovarian cancer cells; test: Inherent cytotoxicity (dark toxicity) in SKOV3 cells (AlamarBlue viability); type: cell-based, Human
Method: as §1, §2
Untreated cells were used as a control. […] All measurements were made in quadruplicate.

[3] = Homo sapiens, SK-OV-3, light or radiation study
[4] = SKOV3, 24 hours incubation, no light activation
[5] = SKOV3, 24 hours uptake, 660 nm, 50 mW/cm^2 for 5 mins (total 15 J/cm^2), * phototoxicity measured by LED

Molecule	IC90 [1, 3]	Dark toxicity μM (IC10) [2, 4]	further results
C=Cc1c(C)c2cc3nc(c(C)c4[nH]c(cc5nc(cc1[nH]2)C(C)=C5CC)c(C)c4C(=O)O)[C@@H](CCC(=O)O)[C@@H]3C [Chlorin e4 disodium, Chlorin e4 Disodium Salt, reference compound]			IC90 ([1]; SKOV3, 24 hours uptake, 660 nm, 50 mW/cm^2 for 5 mins (total 15 J/cm^2), values not marked * (laser)): 21.3 µM; Dark toxicity μM (IC10) [2]: 40.23 µM
CCC1=C(C)c2cc3[nH]c(cc4nc(c(C)c5[nH]c(cc1n2)c(C)c5C(=O)OC)[C@@H](CCC(=O)OC)[C@@H]4C)c(C)c3C(C)OCCCS[C@@H]1O[C@H](CO)[C@@H](O)[C@H](O)[C@H]1O (stereo partly drawn) [Compound 1, methyl (7S,8S)-18-ethyl-7-(3-methoxy-3-oxopropyl)-2,5,8,12,17-pentamethyl-13-(1-(3-(((2S,3R,4S,5S,6R)-3,4,5-trihydroxy-6-(hydroxymethyl)tetrahydro-2H-pyran-2-yl)thio)propoxy)ethyl)-7H,8H-porphyrin-3-carboxylate]	0.06 µM	8.64 µM	
CCC1=C(C)c2cc3[nH]c(cc4nc(c(C)c5[nH]c(cc1n2)c(C)c5C(=O)OC)[C@@H](CCC(=O)OC)[C@@H]4C)c(C)c3COC(=O)NCCCOCCC[P+](c1ccccc1)(c1ccccc1)c1ccccc1 [Compound 4, chlorin e4 dimethyl ester 13-(N-(3-(3-triphenylphosphoniumpropoxy)propyl)chloride)carbamate]	0.0024 µM	3.881 µM	
CCC1=C(C)c2cc3[nH]c(cc4nc(c(C)c5[nH]c(cc1n2)c(C)c5C(=O)OC)[C@@H](CCC(=O)OC)[C@@H]4C)c(C)c3COC(=O)NCCC[P+](c1ccccc1)(c1ccccc1)c1ccccc1 [Compound 5, chlorin e4 dimethyl ester 13-(N-(3-triphenylphosphoniumpropyl)bromide)carbamate]	0.0029 µM	3.046 µM	
CCC1=C(C)c2cc3[nH]c(cc4nc(c(C)c5[nH]c(cc1n2)c(C)c5C(=O)OC)[C@@H](CCC(=O)OC)[C@@H]4C)c(C)c3COC(=O)NCC[P+](c1ccccc1)(c1ccccc1)c1ccccc1 [Compound 6, chlorin e4 dimethyl ester 13-(N-(2-triphenylphosphoniumethyl)bromide)carbamate]		2.281 µM	IC90 ([1]; Homo sapiens, SK-OV-3, light or radiation study, SKOV3, 24 hours uptake, 660 nm, 50 mW/cm^2 for 5 mins (total 15 J/cm^2), * phototoxicity measured by LED): 0.0018 µM
C=Cc1c(C)c2cc3nc(c(CC(=O)N[C@@H](CC(=O)O)C(=O)O)c4[nH]c(cc5nc(cc1[nH]2)C(C)=C5CC)c(C)c4C(=O)O)[C@@H](CCC(=O)O)[C@@H]3C [Talaporfin sodium, reference compound]		11.10 µM	
chlorin e4 13-hydroxymethyl dimethyl ester			IC90 [1, 5]: 0.325 µM; Dark toxicity μM (IC10) [2]: 42.830 µM
chlorin e4 dimethyl ester 13-(6-(triphenylphosphonium bromide)hexyl)carbamate [Compound 3]		0.838 µM	IC90 [1, 5]: 0.0041 µM
